Reference: patent US12478627B2, “Irsogladine for the treatment of eosinophilic gastrointestinal diseases” (EPITHELION SCIENCE BIOTECH, S.L., priority 2019, dated 2025)
“Also recorded” adds a separate entry of the source. Counter-ions that a name gives are not always drawn.

Experiments:
EoE and EoGIDs = settings: cited from earlier work
[1] = test system: Eosinophilic Esophagitis (EoE); assay: Example 1: oral Irsogladine maleate in patient one with active eosinophilic esophagitis; type: in vivo, human; settings: 12 weeks
From the text: […] […] […] A esophageal pH-metric study, performed without PPI treatment, was informed as normal. […] Without other type of examination, JCC was empirically treated in three occasions with Budesonide.
When seen, JCC was symptomatic, with difficulties to swallow food. Because of the symptoms and clinical history, Eosinophilic Esophagitis was suspected (Lucendo A J, et al. supra; Dellon E S, et al. supra; Lipowska A M, Kavitt R T. Current Diagnostic and Treatment Strategies for Eosinophilic Esophagitis. Gastroenterol Hepatol (N Y) 2017; 13(9):527-535). […] They had neither blood nor urine biological tests abnormalities. […] An Enteral Magnetic Resonance Imaging was informed as normal, without inflammatory features, increased wall thickness or strictures in the gastro-intestinal tract.
Simultaneously, biopsies were taken in all organs examined. […] Biopsies met the histological criteria of active eosinophil esophagitis (Lee S, de Boer W B, Naran A, et al. More than just counting eosinophils: proximal oesophageal involvement and subepithelial sclerosis are major diagnostic criteria for eosinophilic oesophagitis. J Clin Pathol. 2010; 63 (7):644-647; Collins M H, Capocelli K, Yang G Y. Eosinophilic Gastrointestinal Disorders Pathology. Front Med (Lausanne). 2018; 4:261). Gastric, duodenal and upper jejunal biopsies were reported as normal.
Consequently, JJC was diagnosed with active eosinophlic esophagitis. At this point in time, JJC was treated with oral Irsogladine maleate tablets, 2 mg twice a day during 12 weeks, exempting JJC from other therapies.
Also, at end of the Irsogladine treatment, endoscopic examination was repeated using Narrow Band Imaging (NBI). This technique is able to detect minimal changes in mucosa surface.

eosinophilic jejunitis = assay: Example 3: Irsogladine maleate in patient two with mild eosinophilic jejunitis; type: in vivo, human
[2] = test system: Eosinophilic Esophagitis (EoE); assay: Example 2: oral Irsogladine maleate in patient three with eosinophilic esophagitis; type: in vivo, human
Method: […] […] […] Pain tended to increase while eating.
Endoscopic procedures were performed. Colonoscopy of the entire colon and 20 cm of the distal ileum were informed as normal and staged biopsies were taken. […] Biopsies were taken in all upper gastrointestinal tract organs examined. Both, clinical symptoms and endoscopic findings are in accordance with the clinical and endoscopic criteria of EoE (Lucendo A J, Molina-Infante J, Arias Á, et al. Guidelines on eosinophilic esophagitis: evidence-based statements and recommendations for diagnosis and management in children and adults. United European Gastroenterol J. 2017; 5 (3):335-358; Dellon E S, Liacouras C A, Molina-Infante J, et al. Updated International Consensus Diagnostic Criteria for Eosinophilic Esophagitis: Proceedings of the AGREE Conference. Gastroenterology. 2018; 155 (4):1022-1033.e10.; Lipowska AM, Kavitt R T. Current Diagnostic and Treatment Strategies for Eosinophilic Esophagitis. Gastroenterol Hepatol (N Y) 2017; 13 (9):527-535; Hirano I, Moy N, Heckman M G, Thomas C S, Gonsalves N, Achem S R. Endoscopic assessment of the oesophageal features of eosinophilic oesophagitis: validation of a novel classification and grading system. Gut. 2013; 62 (4):489-495; Muir A B, Merves J, Liacouras C A. Role of Endoscopy in Diagnosis and Management of Pediatric Eosinophilic Esophagitis. Gastrointest Endosc Clin N Am. 2016; 26 (1):187-200).
These biopsies meet the diagnostic criteria of Eosinophilic Esophagitis (Lee S, de Boer W B, Naran A, et al. More than just counting eosinophils: proximal oesophageal involvement and subepithelial sclerosis are major diagnostic criteria for eosinophilic oesophagitis. J Clin Pathol. 2010; 63 (7):644-647; Collins M H, Capocelli K, Yang G Y. Eosinophilic Gastrointestinal Disorders Pathology. Front Med (Lausanne). 2018; 4: 261).
Upon confirming the diagnosis with Eosinophilic Esophagitis, JPV was treated with 4 mg of oral Irsogladine maleate twice a day for 8 weeks, without following any other treatment such as food elimination or pharmaceutical treatments (i.e. corticosteroids or monoclonal antibodies).
Due to the therapeutic efficacy shown by Irsogladine administration, it was decided to prolong JPV treatment for an additional 24 weeks (in total 32 weeks), at the same dose, with regular telephone and presential checking of symptoms and general health. […] Esophageal biopsies were taken showing no excess of eosinophil infiltrate (<10 cells/hpf) (FIGS. 12 and 13). There was neither peripheral blood eosinophilia (315 cells mm^3) nor anemia or any biological signs of inflammation.

[3] = patients with EoE or EoGIDs, literature reports
[4] = 2 mg twice a day, listed as Irsogladine Maleate
[5] = 4 mg twice a day, 8 weeks, listed as Irsogladine Maleate

Compound: Cn1cnc([N+](=O)[O-])c1Sc1ncnc2nc[nH]c12 [Azathioprine]
- side effects (EoE and EoGIDs; [3]): not free of side effects
- efficacy (EoE and EoGIDs; two reports, small number of cases of EoE and EoGE): has shown efficacy

Compound: Nc1nc(N)nc(-c2cc(Cl)ccc2Cl)n1 [Irsogladine maleate]
- endoscopic examination of esophageal mucosa (Narrow Band Imaging) [1, 4]: Mucosa white plaques and circular trachealization disappeared
- histologic features of esophageal biopsy (eosinophil infiltration, intercellular spaces) [1, 4]: Eosinophil infiltration has clearly reduced, and intercellular spaces are back to normal
- symptoms (eosinophilic jejunitis; 4 mg twice a day, after 2 weeks): symptoms improved
- symptoms (eosinophilic jejunitis; 4 mg twice a day, after 4 weeks): fully asymptomatic
- symptoms (eosinophilic jejunitis; after 6 months maintenance treatment, 4 mg once a day): remained asymptomatic
- gastrointestinal upper endoscopy (eosinophilic jejunitis; after 6 months treatment): considered normal; also recorded: normal looking upper jejunal mucosa
- histology of upper jejunal mucosa biopsy (eosinophilic jejunitis; after six months of daily treatment): normal looking villi and no increase of eosinophilic infiltration
- endoscopic aspect of esophageal mucosa [2, 5]: Esophageal linear furrows, white plaques and a tendency to trachealization have disappeared
- histologic features of esophageal biopsy (eosinophil infiltration, microabscesses, intercellular spaces) [2, 5]: absence of eosinophil infiltration
- histological aspect of esophageal mucosa ([2]; 32 weeks of treatment): strictly normal
- endoscopic aspect of esophageal mucosa ([2]; 32 weeks of treatment, listed as Irsogladine Maleate): normal

Compound: Nc1nc(N)nc(-c2cc(Cl)ccc2Cl)n1 [Irsogladine, 6-(2,5-Dichlorophenyl)-1,3,5-triazine-2,4-diamine]
- disease remission ([1]; 2 mg twice a day): therapeutically effective in inducing disease remission
- endoscopic examination of esophageal mucosa (Narrow Band Imaging) ([1]; 2 mg twice a day): esophageal mucosal furrows, white plaques and trachealization lesions had disappeared
- histologic features of esophageal biopsy (eosinophil infiltration, intercellular spaces) ([1]; 2 mg twice a day): no dilation of intercellular spaces
- side effects ([1]; 2 mg twice a day): No side effects
- symptoms ([1]; 2 mg twice a day): Symptoms had disappeared
- eosinophil counts in biopsies of the esophageal mucosa ([1]; oral tablets 2 mg twice a day, before treatment more than 30 cells per HPF, EoE threshold 15 counts per HPF): less than 5 per HPF
- eosinophil counts in esophageal biopsy ([2]; 4 mg oral twice a day, 8 weeks, before treatment more than 50 per HPF): less than 15 per HPF
- disease remission ([2]; 4 mg twice a day, 8 weeks): therapeutically effective to induce remission
- endoscopic aspect of esophageal mucosa ([2]; 4 mg twice a day, 8 weeks): endoscopically normal
- histologic features of esophageal biopsy (eosinophil infiltration, microabscesses, intercellular spaces) ([2]; 4 mg twice a day, 8 weeks): negligible presence of eosinophil infiltration; also recorded: no eosinophilic microabscesses and absence of intercellular dilated spaces
- side effects ([2]; 4 mg twice a day, 8 weeks): No side effects
- symptoms ([2]; 4 mg twice a day, 8 weeks): completely disappeared
- eosinophil infiltrate in esophageal biopsies ([2]; 4 mg twice a day, additional 24 weeks (in total 32 weeks)): < 10 cells/hpf
- endoscopic aspect of esophageal mucosa ([2]; 32 weeks of treatment): normal looking mucosa
- side effects of long-term administration ([2]; 32 weeks of treatment): No side effects

Compound: CCN(CCCCOC(=O)c1ccc(OC)c(OC)c1)C(C)Cc1ccc(OC)cc1.Cl (stereo not drawn) [Mebeverine Chlorhydrate]
- response of symptoms to earlier symptomatic treatment (eosinophilic jejunitis; Omeprazole 20 mg twice a day and Mebeverine Chlorhydrate 200 mg twice daily, long periods, before Irsogladine): no improvement

Compound: Benralizumab: mAb against IL-5 receptor
- clinical symptoms (EoE and EoGIDs; [3]): did not correspond with clinical improvement
- tissue eosinophil infiltrate (EoE and EoGIDs; [3]): significant reduction

Compound: Infliximab: Anti-TNFα mAb
- clinical symptoms (EoE and EoGIDs; [3]): have not shown efficacy
- tissue eosinophil infiltrate (EoE and EoGIDs; [3]): have not shown efficacy

Compound: Omalizumab: anti-IgE, targets a highly affinity receptor binding site of human IgE
- induction or maintenance of disease remission (EoE and EoGIDs; eosinophilic esophagitis, literature reports): failed to control or induce remission
- clinical symptoms (EoE and EoGIDs; [3]): variable effects
- tissue eosinophil infiltrate (EoE and EoGIDs; [3]): non-significant decrease
